Measured values reported in PubChem BioAssay (NCI).
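96-well plates; 48 h exposure; 5 concentrations. Endpoints by linear interpolation between flanking doses. Not reached: highest tested concentration assigned. TGI denotes the concentration required for complete inhibition of growth.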

Tests used:
Test in all cases: NCI tumour cell line growth inhibition, 48 h
[1] = test system: 786-0 renal
[2] = test system: A498 renal
[3] = test system: A549 NSCLC
[4] = test system: ACHN renal
[5] = test system: BT-549 breast
[6] = test system: CAKI-1 renal
[7] = test system: CCRF-CEM leukemia
[8] = test system: COLO 205 colon
[9] = test system: DLD-1 colon
[10] = test system: DMS 114 small cell lung
[11] = test system: DMS 273 small cell lung
[12] = test system: DU-145 prostate
[13] = test system: EKVX NSCLC
[14] = test system: HCC-2998 colon
[15] = test system: HCT-116 colon
[16] = test system: HCT-15 colon
[17] = test system: HL-60(TB) leukemia
[18] = test system: HOP-18 NSCLC
[19] = test system: HOP-62 NSCLC
[20] = test system: HOP-92 NSCLC
[21] = test system: HS 578T breast
[22] = test system: HT29 colon
[23] = test system: IGROV1 ovarian
[24] = test system: K-562 leukemia
[25] = test system: KM12 colon
[26] = test system: KM20L2 colon
[27] = test system: LOX IMVI melanoma
[28] = test system: LXFL 529 NSCLC
[29] = test system: M14 melanoma
[30] = test system: M19-MEL melanoma
[31] = test system: MALME-3M melanoma
[32] = test system: MCF7 breast
[33] = test system: MDA-MB-231 breast
[34] = test system: MDA-MB-435
[35] = test system: MDA-N
[36] = test system: MOLT-4 leukemia
[37] = test system: NCI-H226 lung
[38] = test system: NCI-H23 lung
[39] = test system: NCI-H460 lung
[40] = test system: NCI-H522 lung
[41] = test system: NCI/ADR-RES ovarian
[42] = test system: OVCAR-3 ovarian
[43] = test system: OVCAR-4 ovarian
[44] = test system: OVCAR-5 ovarian
[45] = test system: OVCAR-8 ovarian
[46] = test system: PC-3 prostate
[47] = test system: RPMI-8226 leukemia
[48] = test system: RXF 393 renal
[49] = test system: RXF-631 renal
[50] = test system: SF-268 CNS
[51] = test system: SF-295 CNS
[52] = test system: SF-539 CNS
[53] = test system: SK-MEL-2 melanoma
[54] = test system: SK-MEL-28 melanoma
[55] = test system: SK-MEL-5 melanoma
[56] = test system: SK-OV-3 ovarian
[57] = test system: SN12C renal
[58] = test system: SNB-19 CNS
[59] = test system: SNB-75 CNS
[60] = test system: SNB-78 CNS
[61] = test system: SR leukemia
[62] = test system: SW-620 colon
[63] = test system: T-47D breast
[64] = test system: TK-10 renal
[65] = test system: U251 CNS
[66] = test system: UACC-257 melanoma
[67] = test system: UACC-62 melanoma
[68] = test system: UO-31 renal
[69] = test system: XF 498 CNS
[70] = test system: P388 leukemia
[71] = test system: P388/ADR leukemia
[72] = test system: SN12K1 renal

## O=C1C(=O)N(c2cccc(C(F)(F)F)c2)C(=O)C(=O)C1c1nc2ccccc2s1
[1]
  TGI: > 100 µM
[2]
  TGI: > 100 µM
[3]
  TGI: > 100 µM
[4]
  TGI: > 100 µM
[5]
  TGI: > 100 µM
[6]
  TGI: > 100 µM
[7]
  TGI: 65.1 µM
[8]
  TGI: > 100 µM
[9]
  TGI: > 100 µM
[10]
  TGI: > 100 µM
[11]
  TGI: > 100 µM
[12]
  TGI: > 100 µM
[13]
  TGI: > 100 µM
[14]
  TGI: > 100 µM
[15]
  TGI: > 100 µM
[16]
  TGI: > 100 µM
[17]
  TGI: 59.8 µM
[18]
  TGI: > 100 µM
[19]
  TGI: > 100 µM
[20]
  TGI: > 100 µM
[21]
  TGI: > 100 µM
[22]
  TGI: > 100 µM
[23]
  TGI: > 100 µM
[24]
  TGI: > 100 µM
[25]
  TGI: > 100 µM
[26]
  TGI: > 100 µM
[27]
  TGI: > 100 µM
[28]
  TGI: > 100 µM
[29]
  TGI: > 100 µM
[30]
  TGI: > 100 µM
[31]
  TGI: > 100 µM
[32]
  TGI: > 100 µM
[33]
  TGI: > 100 µM
[34]
  TGI: > 100 µM
[35]
  TGI: > 100 µM
[36]
  TGI: > 100 µM
[37]
  TGI: > 100 µM
[38]
  TGI: > 100 µM
[39]
  TGI: > 100 µM
[40]
  TGI: > 100 µM
[41]
  TGI: > 100 µM
[42]
  TGI: > 100 µM
[43]
  TGI: > 100 µM
[44]
  TGI: > 100 µM
[45]
  TGI: > 53.8 µM
[46]
  TGI: > 100 µM
[47]
  TGI: > 100 µM
[48]
  TGI: > 100 µM
[49]
  TGI: > 100 µM
[50]
  TGI: > 100 µM
[51]
  TGI: > 100 µM
[52]
  TGI: > 100 µM
[53]
  TGI: > 100 µM
[54]
  TGI: > 100 µM
[55]
  TGI: > 100 µM
[56]
  TGI: > 100 µM
[57]
  TGI: > 100 µM
[58]
  TGI: > 100 µM
[59]
  TGI: > 100 µM
[60]
  TGI: > 100 µM
[61]
  TGI: 83.6 µM
[62]
  TGI: > 100 µM
[63]
  TGI: > 100 µM
[64]
  TGI: > 100 µM
[65]
  TGI: > 100 µM
[66]
  TGI: > 100 µM
[67]
  TGI: > 100 µM
[68]
  TGI: > 100 µM
[69]
  TGI: > 100 µM

## CCC(C)C1NC(=O)CNC(=O)C2Cc3c([nH]c4cc(O)ccc34)S(=O)CC(NC(=O)CNC1=O)C(=O)NC(CC(=O)O)C(=O)N1CC(O)CC1C(=O)NC(C(C)C(O)CO)C(=O)N2 (configuration not stated)
[9]
  TGI: > 100 µM
[10]
  TGI: 3.78 µM
[11]
  TGI: 14.9 µM
[18]
  TGI: > 88.9 µM
[20]
  TGI: 5.78 µM
[26]
  TGI: > 100 µM
[30]
  TGI: 24.2 µM
[37]
  TGI: 8.08 µM
[38]
  TGI: 5.81 µM
[70]
  TGI: 14.9 µM
[71]
  TGI: 18.4 µM
[72]
  TGI: > 100 µM
[60]
  TGI: > 100 µM
[66]
  TGI: 6.73 µM
[69]
  TGI: 5.88 µM

## C=C1C(=O)OC2C1C(OC(=O)/C(C)=C\C)CC1(CO1)C1C(O)C=C(C)C21O (configuration not stated)
[1]
  TGI: 8.5 µM
[2]
  TGI: 17.7 µM
[3]
  TGI: 40.6 µM
[4]
  TGI: 13.9 µM
[6]
  TGI: 6.36 µM
[7]
  TGI: > 100 µM
[8]
  TGI: 2.62 µM
[9]
  TGI: 7.8 µM
[10]
  TGI: 20.6 µM
[11]
  TGI: 20 µM
[13]
  TGI: 26.5 µM
[14]
  TGI: 15.1 µM
[15]
  TGI: 3.29 µM
[16]
  TGI: 11 µM
[17]
  TGI: > 100 µM
[18]
  TGI: 23.3 µM
[19]
  TGI: 41.1 µM
[20]
  TGI: 31.3 µM
[22]
  TGI: 31.4 µM
[23]
  TGI: 29.7 µM
[24]
  TGI: > 100 µM
[25]
  TGI: 24.4 µM
[26]
  TGI: 10.8 µM
[27]
  TGI: 30.6 µM
[28]
  TGI: 3.42 µM
[29]
  TGI: 7.58 µM
[30]
  TGI: 25.4 µM
[31]
  TGI: 7.65 µM
[36]
  TGI: 11.8 µM
[38]
  TGI: 27.2 µM
[39]
  TGI: 29.4 µM
[40]
  TGI: 2.3 µM
[42]
  TGI: 11.3 µM
[43]
  TGI: 20.7 µM
[44]
  TGI: 34.3 µM
[45]
  TGI: 6.03 µM
[47]
  TGI: 22.2 µM
[48]
  TGI: 7.09 µM
[49]
  TGI: 16.9 µM
[50]
  TGI: 17.4 µM
[51]
  TGI: 41.7 µM
[52]
  TGI: 8.06 µM
[53]
  TGI: 12.5 µM
[54]
  TGI: 13.2 µM
[55]
  TGI: 17.7 µM
[56]
  TGI: 30.5 µM
[57]
  TGI: 14.5 µM
[58]
  TGI: 35.2 µM
[59]
  TGI: 29.2 µM
[60]
  TGI: 34.9 µM
[61]
  TGI: 24.2 µM
[62]
  TGI: 3.34 µM
[64]
  TGI: 9.35 µM
[65]
  TGI: 24.5 µM
[66]
  TGI: 21.7 µM
[67]
  TGI: 5.81 µM
[68]
  TGI: 22.2 µM
[69]
  TGI: 25.7 µM
